Laboratory results as given in ChEMBL document CHEMBL5131513, “Protein S-Nitrosation: Biochemistry, Identification, Molecular Mechanisms, and Therapeutic Applications” (J Med Chem, 2022).
pIC50: −log10 of the molar value.

system: not listed separately; test: Inhibition of human GSNOR; details: not given

Row | Compound | pIC50
1 | NC(=O)c1ccc(-c2cc(C(=O)O)ccc2C#Cc2ccc(O)cc2Cl)cc1 | > 7.30
2 | Cc1nccn1-c1ccc(-c2ccc(CCC(=O)O)n2-c2ccc(S(N)(=O)=O)cc2)s1 | 7.64
3 | O=C(O)c1ccc(C#Cc2ccc(O)cc2Cl)c(CCCn2cnnn2)c1 | > 7.30
4 | Cc1cc(S(N)(=O)=O)ccc1-n1c(CCC(=O)O)ccc1-c1ccc(-n2ccnc2C)s1 | 7.66
5 | Cc1cc(C(N)=O)ccc1-n1c(CCC(=O)O)ccc1-c1ccc(Br)cc1 | 7.15
6 | Cc1nccn1-c1ccc(-c2ccc(CCC(=O)O)n2-c2ccc(O)cc2)s1 | 7.44
7 | CCOc1cc([C@@H]2NC(=O)NC(c3cccnc3)=C2c2ccsc2)cc(C(=O)O)c1O | > 7.00
8 | Cc1cc(NS(C)(=O)=O)ccc1-n1c(CCC(=O)O)ccc1-c1ccc(-n2ccnc2)cc1 | 7.54
9 | COc1cc(Cl)ccc1-c1ccc(CCC(=O)O)n1-c1ccc(C(N)=O)cc1C | 7.25
10 | O=C(O)CCc1ccc(-c2ccc(-n3ccnc3)cc2)n1-c1ccc(O)cc1 | 7.41
11 | Cc1cc(-n2ccnc2)ccc1-c1cc2sc(C(=O)O)cc2n1-c1ccc(C(N)=O)c(OCC(C)C)c1 | > 7.30
12 | Cc1cc(C(N)=O)ccc1-n1c(CCC(=O)O)ccc1-c1ccc(Cl)cc1O | 7.26
13 | Cc1cc(NS(C)(=O)=O)ccc1-n1c(CCC(=O)O)ccc1-c1ccc(-n2ccnc2C)s1 | 7.37

species: Homo sapiens; test: Inhibition of nNOS (unknown origin)/CAPON (unknown origin) protein-protein interaction assessed as residual activity by coimmunoprecipitation assay relative to control; design: concentration or dose not given beside the values; details: not given

Row | Compound | Activity [%]
14 | CC(C)[C@@H](NC(=O)CC(=O)O)C(=O)O | 75
15 | COC(=O)[C@H](NC(=O)CC(=O)O)C(C)C | 30.5
16 | COC(=O)CCC(=O)N[C@@H](C(=O)OC)C(C)C | 61.8
17 | COC(=O)[C@H](NC(=O)Cc1nnn[nH]1)C(C)C | 49.4
18 | COC(=O)[C@@H](NC(=O)CC(=O)O)C(C)C | 37.5
19 | COC(=O)[C@@H](Cc1ccccc1)NC(=O)CC(=O)O | 76.6
20 | COC(=O)[C@H](NCCC(=O)O)C(C)C | 87.8
21 | COC(=O)CC(=O)N[C@@H](C(=O)OC)C(C)C | 26.3

system: not listed separately; test: Inhibition of recombinant nNOS (1 to 299 residues) (unknown origin)/biotin-tagged PSD95 (unknown origin) protein-protein interaction by DELFIA; design: species or system Homo sapiens; details: not given

Row | Compound | pIC50
22 | Oc1c(Cl)cc(Cl)cc1CNc1ccc2nn[nH]c2c1 | 4.51

system: not listed separately; test: Inhibition of NMDA-induced nNOS/PSD95 in rat cortical neurons preincubated for 30 mins followed by NMDA addition in presence of glutamate/glycine measured after 24 hrs by immunoprecipitation assay; assay type: cell-based; details: cortical neuron

Row | Compound | pIC50
23 | O=C(O)c1ccc(NCc2cc(Cl)cc(Cl)c2O)cc1O | 7.09
24 | O=C(O)c1ccc(NCc2cc(Cl)ccc2O)cc1O | 4.40
25 | COC(=O)c1ccc(NCc2cc(Cl)cc(Cl)c2O)cc1O | 4.95
26 | O=C(O)c1ccc(NCCc2cc(Cl)cc(Cl)c2O)cc1O | 3.22
27 | O=C(O)c1ccc(NCc2cc(Br)ccc2O)cc1O | 4.99
28 | O=C(O)c1cc(NCc2cc(Cl)cc(Cl)c2O)ccc1O | 3.06
29 | O=C(O)c1ccc(NCc2cc(F)ccc2O)cc1O | 6.06
